Series [1] concerns AML / acute leukemias. Particulars: cited from earlier work.
Series [2] can be described thus: Serum vorinostat pharmacokinetics. The series is classed as in vivo, human. Particulars: for AUC(0-t): AUC0-8 h; for AUC(0-inf): AUC0-inf.
Series [3] concerns buccal mucosal cells. The series is described as follows: Cell-cycle phase distribution, pre vs on vorinostat. Format: in vivo, human.
Series [4] relates to leukemic blasts. The description is as above. Format: in vivo, human. The note with it: Mean.
In series [5] the test system is Buccal mucosa cells. The series can be described thus: TRAIL death receptor protein expression, pre vs on vorinostat. The series is classed as in vivo, human.
Series [6] has as its system Leukemia blast cells. The series is described as follows: TRAIL death and decoy receptor protein expression, pre vs on vorinostat. The series is classed as in vivo, human.
The test system of series [7] is HL-60/W. The series can be described thus: Control studies for DR or DcR expression. The series is classed as cell-based, human.
For series [8], the system named is BCRP. The series can be described thus: BCRP transcripts in patient leukemic blasts. Format: in vivo, human. Particulars: paired t test, 8 paired samples.
The test system of series [9] is BCRP. The series can be described thus: Functional expression of BCRP in patient blasts. The series is classed as in vivo, human. Particulars: paired t test, 6 paired samples.
Series [10] concerns patients with poor-risk or advanced acute leukemias.
Series [11] has as its system MDR1.
Series [12] relates to Pgp (ABCB1). The note with it: individual patients' blasts on vorinostat; D < 0.15 = no overexpression.
Series [13] deals with Pgp (Homo sapiens, UniProt P08183). The note with it: paired t test, 6 paired samples.
For series [14], the system named is HL-60/W. The note with it: HL-60 cells, 24-hour exposure to 1 μmol/L vorinostat; cited from earlier work.
Series [15] relates to human leukemia cell lines. The note with it: cited from earlier work.
The test system of series [16] is BCRP (ABCG2). The series can be described thus: BCRP protein in patient leukemic blasts.
The mark [17] stands for this setting: human, serum, oral, 200 mg, Median, N 21.

Values joined by “and” are separate entries in the source; they are usually repeats but may differ in a detail not shown here. Equal values may be shown once. Read-outs that look alike come from different tables or passages of the source.

Sequence of Pgp (P08183 whole entry): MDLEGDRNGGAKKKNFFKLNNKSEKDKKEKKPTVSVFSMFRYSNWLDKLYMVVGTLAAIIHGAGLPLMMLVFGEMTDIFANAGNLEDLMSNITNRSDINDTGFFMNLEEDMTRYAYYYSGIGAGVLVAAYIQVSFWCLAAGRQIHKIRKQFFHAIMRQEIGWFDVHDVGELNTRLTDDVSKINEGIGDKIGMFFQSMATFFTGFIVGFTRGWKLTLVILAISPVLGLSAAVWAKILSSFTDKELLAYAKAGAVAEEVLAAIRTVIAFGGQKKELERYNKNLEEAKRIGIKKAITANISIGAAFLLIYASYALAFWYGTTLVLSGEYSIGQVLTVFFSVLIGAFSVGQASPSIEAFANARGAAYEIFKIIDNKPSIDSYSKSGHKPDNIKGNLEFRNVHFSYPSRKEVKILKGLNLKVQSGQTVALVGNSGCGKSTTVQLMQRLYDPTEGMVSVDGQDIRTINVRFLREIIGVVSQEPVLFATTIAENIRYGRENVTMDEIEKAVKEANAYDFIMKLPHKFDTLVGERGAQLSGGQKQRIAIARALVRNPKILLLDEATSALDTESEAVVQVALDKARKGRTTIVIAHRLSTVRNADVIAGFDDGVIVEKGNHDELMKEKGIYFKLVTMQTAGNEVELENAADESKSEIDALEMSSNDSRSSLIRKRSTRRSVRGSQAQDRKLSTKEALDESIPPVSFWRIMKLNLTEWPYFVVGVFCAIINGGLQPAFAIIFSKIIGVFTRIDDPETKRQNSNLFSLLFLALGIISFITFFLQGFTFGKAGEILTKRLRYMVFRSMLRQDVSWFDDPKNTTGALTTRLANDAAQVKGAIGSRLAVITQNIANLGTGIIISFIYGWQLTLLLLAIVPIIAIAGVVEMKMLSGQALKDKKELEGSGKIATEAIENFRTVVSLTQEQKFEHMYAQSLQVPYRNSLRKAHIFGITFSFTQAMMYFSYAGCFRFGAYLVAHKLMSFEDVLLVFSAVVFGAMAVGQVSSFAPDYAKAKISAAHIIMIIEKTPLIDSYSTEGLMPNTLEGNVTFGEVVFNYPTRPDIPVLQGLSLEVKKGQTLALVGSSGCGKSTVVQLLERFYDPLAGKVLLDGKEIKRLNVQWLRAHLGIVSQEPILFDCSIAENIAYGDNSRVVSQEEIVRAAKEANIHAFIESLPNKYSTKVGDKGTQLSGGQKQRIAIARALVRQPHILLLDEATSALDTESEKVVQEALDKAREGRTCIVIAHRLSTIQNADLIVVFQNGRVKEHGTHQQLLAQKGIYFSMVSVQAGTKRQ

Regarding `CCCC(CCC)C(=O)O` [valproic acid], the response rate in [1] (frail or elderly patients with AML, valproic acid alone or in combination with all-trans retinoic acid) is 5%.

As for `Nc1ccccc1NC(=O)c1ccc(CNC(=O)OCc2cccnc2)cc1` [MS-275], in series [1] (phase I study, 38 adults with advanced acute leukemias), the “clinical responses using classical criteria” value is reported as “no clinical responses”.

As for `O=C(CCCCCCC(=O)Nc1ccccc1)NO` [vorinostat, suberoylanilide hydroxamic acid], the Cmax is 165.2 ± 64.1 ng/mL in series [2] (DL2, average); 185 ng/mL in series [2] (Mean, N 21, serum, first 200 mg oral dose day 1); 203 ± 101 ng/mL in [2] (human, serum, oral, 200 mg, Cmax, 65 years or older age group, average); 197 ± 90.4 ng/mL in series [2] (human, serum, oral, 200 mg, Cmax, DL1, average); 174 ± 174 ng/mL in series [2] (human, serum, oral, 200 mg, Cmax, less than 65 years of age cohort, average). Moreover, the Cl/F in [2] (Geometric mean, N 20) was determined as 277 L; in [2] (Mean, N 20, serum, first 200 mg oral dose day 1), 300 L; in series [2] (Median, N 20) it was 265 L. The Vd/F worked out at 829 L/h in [2] (Geometric mean, N 20) and 689 L/h in series [2] (Median, N 20). Further, the t1/2 in [2] (Median, N 20) is 1.7 h. Also, the AUC(0-t) in series [2] (human, serum, oral, 200 mg, Geometric mean, N 21) came out at 591 ng·h/mL; in series [2] (setting [17]), 623 ng·h/mL. In addition, the AUC(0-inf) is 722 ng·h/mL in series [2] (human, serum, oral, 200 mg, Geometric mean, N 20) and 757 ng·h/mL in series [2] (human, serum, oral, 200 mg, Median, N 20). Moreover, the Tmax in series [2] (human, serum, oral, 200 mg, 65 years or older age group, average) was determined as 1.6 ± 1.1 h; in [2] (human, serum, oral, 200 mg, DL2, average), 3.5 ± 2 h; in series [2] (setting [17]), 2 h; in series [2] (human, serum, oral, 200 mg, less than 65 years of age cohort, average), 3.3 ± 3.3 h; in [2] (human, serum, po, 200 mg, Mean, N 21, serum, first 200 mg oral dose day 1) it was 2.6 h. Besides, in [2] (human, serum, po, 200 mg), the half-life is 2.5 h. Further, the “% G0–G1” value in series [3] (Mean, N= 17, On vorinostat (days 4 to 7), Pre mean 77.99, P 0.5705) came to 79.85%; in series [4] (N = 16, On vorinostat (days 4 to 7), Pre mean 83.97, P 0.1519), 87.60%. The “% G2–M” value in [3] (Mean, N= 17, On vorinostat, Pre mean 2.14, P 0.2586) stood at 3.26%; in series [4] (N = 16, On vorinostat, Pre mean 3.83, P 0.7556) it was 3.55%. For the same compound, the “%S” value in series [3] (Mean, N= 17, On vorinostat, Pre mean 11.49, P 0.9168) is recorded as 11.30%; in [4] (N = 16, On vorinostat, Pre mean 9.22, P 0.2841) it was 7.17%. Besides, the “% sub-G0–G1” value in [3] (Mean, N= 17, On vorinostat, Pre mean 11.74, P 0.1942) is 7.79%. For the same compound, in series [3] (pre vs on vorinostat, 17 patients), the “alteration in any cell-cycle phase upon treatment” value is given as “no statistically significant alteration”. For the same compound, the “% sub-G0/G1” value in series [4] (N = 16, On vorinostat, Pre mean 4.29, P 0.0693) was 2.60%. For the same compound, the “Percentage of cells expressing DR5” value in [5] (Mean, N 4, On vorinostat, Pre mean 26.46, P 0.9316) is reported as 25.98 (4); in series [6] (Mean, N 14, On vorinostat, Pre mean 14.75, P 0.3617), 17.68 (14). For the same compound, the “Percentage of cells expressing DR4” value in series [5] (Mean, N 4, On vorinostat, Pre mean 27.90, P 0.5873) was 41.39 (4); in [6] (Mean, N 14, On vorinostat, Pre mean 12.21, P 0.5498) it was 13.82 (14). Also, in series [5] (limited samples), the “DR4 or DR5 expression, pre vs on vorinostat” value is “no statistically significant differences”. Further, the “Percentage of cells expressing DcR2” value in [6] (Mean, N 11, On vorinostat, Pre mean 15.83, P 0.5279) was 17.56 (11). Moreover, the “Percentage of cells expressing DcR1” value in series [6] (Mean, N 11, On vorinostat, Pre mean 17.59, P 0.1364) is listed as 25.97 (11). For the same compound, the “DR4, DR5, DcR1, DcR2 expression, pre vs on vorinostat” value in series [6] (two-sample paired t test or Wilcoxon signed-rank test) was “no significant differences”. The “DcR1, % Positive cells” value in [7] (1 μmol/L vorinostat × 24 hours, untreated HL-60/W 23 ± 2) came out at 94.3 ±1.7%. Besides, the “DR5, % Positive cells” value in [7] (1 μmol/L vorinostat × 24 hours, untreated HL-60/W 47.3 ± 27) was determined as 84.2 ± 6.5%. The “DR4, % Positive cells” value in [7] (1 μmol/L vorinostat × 24 hours, untreated HL-60/W 55.8 ±14) came to 73.2 ±15%. The “DcR2, % Positive cells” value in series [7] (1 μmol/L vorinostat × 24 hours, untreated HL-60/W 56.2 ± 3) worked out at 96.3 ±1.1%. The “DR4, DR5, DcR1, and DcR2 expression” value in [7] (24-hour exposure to 1 μmol/L vorinostat, P < 0.02, t test) is recorded as “significantly increases”. Besides, in series [8], the “BCRP mRNA expression, on vs pre vorinostat among all patients” value was “no significant alteration”. In addition, in [9], the “BCRP function, on vs pre vorinostat” value is on record as “no difference in function”. The DLTs entry in [10] (DL1, 200 mg vorinostat p.o. twice a day) is “No DLTs”; in series [10] (DL2, 200 mg vorinostat 3 times a day, among 5 dose-escalation-evaluable patients) it was 2. Also, the “patients with MDR1 expression increased in the on treatment samples” value in [11] (7 of 8 paired samples, 95% CI, 50%–99%) is 88%. The “MDR1 mRNA expression, on vs pre vorinostat among all patients” value in [11] (paired t test, 8 paired samples) was “no significant alteration”. The “Pgp Protein, ON (Kolmogorov–Smirnov D value)” value in series [12] is 0.05 and 0.07 and 0.08. The “Pgp function, on vs pre vorinostat” value in series [13] is “no difference in function”. Also, in series [14], the “TRAIL death and decoy receptor expression” value is “increased DR4 and DR5 expression, but not DcR1 or DcR2 expression”. Moreover, the “interaction between vorinostat and etoposide” value in series [15] is given as “synergy”. The “interaction with anthracyclines and etoposide, in vitro cytotoxicity studies” value in series [15] is “additively or synergistically”. Besides, in series [15], the “interaction, concomitant administration of cytarabine and vorinostat” value is reported as “antagonism”. The “interaction, sequential administration of vorinostat followed by cytarabine” value in series [15] is listed as “synergism”. Moreover, in series [15] (within 24 hours after in vitro exposure), the “concentrations giving significant reduction in the percentage of S-phase cells” value is not below 1 µmol/L. Also, the “BCRP Protein, ON (Kolmogorov–Smirnov D value)” value in [16] (individual patients' blasts on vorinostat, D < 0.15 = no overexpression) is 0.05 and 0.15 and 0.19. Moreover, in [16] (patients 17 and 24), the “BCRP protein expression following treatment” value is on record as “slight decreases”.

Values taken from publication PMC4332848 (Clinical cancer research : an official journal of the …, 2013).
